Experiment in all cases: growth of human tumour cells (NCI), 48 h
In assay [1] the test system is LOX IMVI.
In assay [2] the test system is MCF7.
Assay [3] has as its system T47D.
Assay [4] relates to MDA-MB-435.
For assay [5], the system named is RPMI-8226.
Assay [6] relates to SF-268.
Assay [7] has as its system SNB-19.
The subject of assay [8] is SK-MEL-5.
Assay [9] relates to NCI-H522.
The subject of assay [10] is SW-620.
For assay [11], the system named is HCC 2998.
Assay [12] has as its system SK-OV-3.
Assay [13] relates to 786-0.
The test system of assay [14] is OVCAR-3.
Assay [15] has as its system OVCAR-4.
The test system of assay [16] is NCI-H460.
The test system of assay [17] is CAKI-1.
Assay [18] concerns UACC-257.
The test system of assay [19] is HL-60.
Assay [20] concerns HOP-92.

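Cells were grown in 96-well plates and exposed to each compound for 48 hours at five concentrations; endpoints were interpolated linearly between bracketing concentrations, or set to the highest concentration if not reached. Abbreviation: GI50, concentration required for 50% inhibition of growth.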 Calls of active or inactive are those of the source. Rule as the data show it: active = GI50 up to about 1.1 µM and inactive = higher.

In the case of `COc1cc(C)c(S(=O)(=O)N(CCCN)OCCCN)c(C)c1C`, the GI50 in assay [1] was 27.8 µM (inactive); in [2], 19.4 µM (inactive); in [3] it was 29.8 µM (inactive); in [4], 38.9 µM (inactive); in [5] it was 17.5 µM (inactive); in [6] it was 36.7 µM (inactive). Also, the GI50 in assay [7] was 42 µM (inactive); in assay [8], 20.8 µM (inactive); in [9], 22 µM (inactive); in [10] it was 46.1 µM (inactive); in [11], 16.6 µM (inactive); in assay [12], > 100 µM (inactive). Further, the GI50 was 45.6 µM (inactive) in [13]; 61.9 µM (inactive) in assay [14]; > 100 µM (inactive) in assay [15]; 47.1 µM (inactive) in [16]; > 100 µM (inactive) in assay [17]; 21.4 µM (inactive) in assay [18].

Consider `COc1c(Sc2c(SCSc3cnc4ccccc4c3Sc3cnc4ccccc4c3OC)cnc3ccccc23)cnc2ccccc12`, for which the GI50 in assay [1] was > 100 µM (inactive); in assay [3], > 100 µM (inactive); in assay [4], 26.9 µM (inactive); in assay [5] it was 9.2 µM (inactive); in assay [6], > 100 µM (inactive); in [7], 22.4 µM (inactive). The GI50 in assay [8] is 24.8 µM (inactive); in [9] it was 19.2 µM (inactive); in [10], 31.6 µM (inactive); in [11], > 100 µM (inactive); in [13] it was > 100 µM (inactive); in [19] it was 1.59 µM (inactive). The GI50 in [14] is > 100 µM (inactive); in assay [15], 37.2 µM (inactive); in assay [16], 98.2 µM (inactive); in [17], > 100 µM (inactive); in assay [20], 13.2 µM (inactive); in [18] it was > 100 µM (inactive).

`CCCC(CCN)(CCN)[N+](=O)[O-]`: the GI50 in assay [3], in assay [4], in [5], in assay [6], in assay [7] and in [8] was > 100 µM (inactive) in each case. In addition, the GI50 in assay [9], in assay [10], in [12], in assay [13], in assay [19] and in assay [15] was > 100 µM (inactive) throughout. In addition, the GI50 in assay [16], in [17] and in [18] was > 100 µM (inactive) each time.

As for `O=[N+]([O-])c1ccc2oc(=N/c3ccccc3)/c(=N\c3ccccc3)[nH]c2c1`, the GI50 in assay [1] is 88.1 µM (inactive); in [3], > 100 µM (inactive); in assay [4], > 100 µM (inactive); in assay [5], > 100 µM (inactive); in [6] it was 54.3 µM (inactive); in [7], 41 µM (inactive). Moreover, the GI50 in assay [8] is 75.9 µM (inactive); in assay [9], 6.97 µM (inactive); in assay [10], > 100 µM (inactive); in assay [11], 83.6 µM (inactive); in assay [12], 55.7 µM (inactive); in assay [13] it was 22.6 µM (inactive). The GI50 in [19] is > 100 µM (inactive); in assay [15], 37.9 µM (inactive); in assay [16] it was 29.6 µM (inactive); in assay [17] it was 61.1 µM (inactive); in [20], 28.2 µM (inactive); in assay [18] it was > 100 µM (inactive).

As for `Oc1cc(O)cc(-c2nc3cc(F)ccc3s2)c1`, the GI50 is 18.5 µM (inactive) in assay [1]; 20.3 µM (inactive) in [2]; 17.5 µM (inactive) in assay [3]; 30.5 µM (inactive) in assay [4]; 18.5 µM (inactive) in assay [5]; 19.4 µM (inactive) in assay [6]. Further, the GI50 is 23.7 µM (inactive) in [7]; 17.5 µM (inactive) in [8]; 18.7 µM (inactive) in [9]; 38.1 µM (inactive) in assay [10]; 25.8 µM (inactive) in assay [12]; 20.6 µM (inactive) in assay [13]. In addition, the GI50 in [14] was 22.6 µM (inactive); in assay [15], 18.5 µM (inactive); in assay [16], 22.8 µM (inactive); in [17], 25.5 µM (inactive); in [18], 16.4 µM (inactive).

In the case of `CCON1CC(C(=O)OC)=C(O)C1=O`, the GI50 in assay [2], in assay [3], in [4], in assay [5], in assay [6] and in assay [7] was > 100 µM (inactive) throughout. Also, the GI50 in [8], in [9], in assay [10], in [11], in [12] and in assay [13] was > 100 µM (inactive) in each case. Further, the GI50 in assay [14], in assay [15], in assay [16], in assay [17], in assay [20] and in assay [18] was > 100 µM (inactive) throughout.

With `O=C1/C(=C/c2cccc(Br)c2)CSC/C1=C\c1cccc(Br)c1`, the GI50 was 1.57 µM (inactive) in assay [1]; 3.17 µM (inactive) in assay [2]; 4.89 µM (inactive) in [3]; 0.537 µM (active) in assay [5]; 5.33 µM (inactive) in [6]; 2.88 µM (inactive) in assay [7]. For the same compound, the GI50 was 1.87 µM (inactive) in assay [8]; 1.87 µM (inactive) in assay [9]; 2.73 µM (inactive) in assay [10]; 1.78 µM (inactive) in assay [11]; 5.79 µM (inactive) in assay [12]; 3.45 µM (inactive) in assay [13]. In addition, the GI50 in assay [19] is 1.92 µM (inactive); in [14], 3.38 µM (inactive); in [15], 2.82 µM (inactive); in assay [16], 2.57 µM (inactive); in [17], 2.47 µM (inactive); in [20], 3.36 µM (inactive). Moreover, the GI50 in assay [18] is 2.38 µM (inactive).

Take `C[N+](C)([O-])Cc1cccc(NC(=O)c2ccc(C(=O)Nc3cccc(C[N+](C)(C)[O-])c3)cc2)c1`: the GI50 in [1], in assay [2], in assay [3], in assay [5], in [6] and in [7] was > 100 µM (inactive) throughout. Besides, the GI50 in assay [8], in assay [9], in [10], in assay [11], in assay [12] and in assay [13] was > 100 µM (inactive) each time. The GI50 in assay [19], in assay [14], in assay [15], in [16], in assay [17] and in [20] was > 100 µM (inactive) throughout. Moreover, the GI50 in assay [18] is > 100 µM (inactive).

As to `O=C1C(Cl)=C(NCCN2CCOCC2)C(=O)c2ncccc21`, the GI50 in [1] was 1.01 µM (active); in assay [2], 1.66 µM (inactive); in assay [3] it was 2.45 µM (inactive); in assay [4], 0.195 µM (active); in assay [6], 1.99 µM (inactive); in assay [7] it was 1.69 µM (inactive). Further, the GI50 in assay [8] was 0.723 µM (active); in [10], 1.85 µM (inactive); in assay [11], 1.47 µM (inactive); in assay [12], 1.95 µM (inactive); in assay [13] it was 1.44 µM (inactive); in [14], 1.6 µM (inactive). The GI50 in assay [16] is 1.46 µM (inactive); in assay [20], 2.25 µM (inactive); in assay [18], 1.71 µM (inactive).

With `COc1cc2c(cc1OC)CCc1cc(OC)c(OC)cc1CC2`, the GI50 was > 100 µM (inactive) in assay [1]; > 100 µM (inactive) in assay [2]; 31.3 µM (inactive) in [3]; > 100 µM (inactive) in [4]; > 100 µM (inactive) in assay [7]; > 100 µM (inactive) in assay [8]. Moreover, the GI50 in assay [10], in [11], in [12], in assay [13], in assay [14] and in assay [15] was > 100 µM (inactive) in each case. In addition, the GI50 in assay [16], in assay [17], in assay [20] and in [18] was > 100 µM (inactive) throughout.

`COc1cc(C(=O)/C=C/c2ccc(OCC#N)cc2)cc(OC)c1OC`: the GI50 in assay [2] was 9.02 µM (inactive); in assay [3], 17.3 µM (inactive); in assay [4], 20.5 µM (inactive); in assay [6] it was 33.3 µM (inactive); in assay [7], 20.3 µM (inactive); in assay [8] it was 13.2 µM (inactive). In addition, the GI50 is 17.3 µM (inactive) in assay [9]; 18.9 µM (inactive) in [10]; 16.5 µM (inactive) in [11]; 40.6 µM (inactive) in assay [12]; 22.2 µM (inactive) in assay [13]; 22.2 µM (inactive) in assay [14]. In addition, the GI50 in assay [15] is 37.4 µM (inactive); in [16] it was 28.8 µM (inactive); in [17] it was 26.1 µM (inactive); in [20], 17 µM (inactive); in [18], 34 µM (inactive).

The record behind these values is ChEMBL document CHEMBL1201862, “PubChem BioAssay data set” (2004).
